Experimental findings from patent US10500194B2, “Covalent small molecule DCN1 inhibitors and therapeutic methods using the same” (THE REGENTS OF THE UNIVERSITY OF MICHIGAN, priority 2017, dated 2019) are described below.

Experiment [1] addresses T1, DCN1 (Homo sapiens (Human), UniProt Q96GG9). Description: Competitive FP binding assay. As to conditions: read-out: Binding affinity to DCN1 (IC50). The method, then:
The Fluorescence Polarization (FP) competitive binding assays were performed to accurately determine the binding affinities of our DCN1 inhibitors. A novel FAM labeled fluorescent probe compound (46) was designed and synthesized based on one of our potent small molecule DCN1 inhibitors. Equilibrium dissociation constants (Kd) values of 46 to both DCN1 and DCN2 proteins were determined from protein saturation experiments by monitoring the total FP values of mixtures composed with the fluorescent probe at a fixed concentration and proteins with increasing concentrations up to full saturation. Serial dilutions of proteins were mixed with 46 to a final volume of 200 μl in the assay buffer (100 mM phosphate buffer, pH=6.5, with 0.02% Tween-20 and 2% DMSO). Final probe concentration was 5 nM for both assays. Plates were incubated at room temperature for 30 minutes with gentle shaking to assure equilibrium. FP values in millipolarization units (mP) were measured using the Infinite M-1000 plate reader (Tecan U.S., Research Triangle Park, N.C.) in Microfluor 1 96-well, black, round-bottom plates (Thermo Scientific, Waltham, Mass.) at an excitation wavelength of 485 nm and an emission wavelength of 530 nm. Kd values of 46 were calculated by fitting the sigmoidal dose-dependent FP increases as a function of protein concentrations using Graphpad Prism 6.0 software (Graphpad Software, San Diego, Calif.).
(§1) Human DCN1 (residues 58-259) were cloned into a pDEST17 plasmid containing an N-terminal His6 tag. DCN2 (residues 62-259), DCN3 (residues 86-304), DCN4 (residues 102-292) and DCN5 (residues 47-237) were cloned into an N-terminal His6-TEV expression vector. Pure proteins were derived from the same expression and purification protocols. Plasmids were transformed into Rosetta2 cells, the cells were grown in Terrific Broth at 37° C. to an O.D.600>1.0 and induced with 0.4 mM Isopropyl β-D-1-thiogalactopyranoside overnight at 20° C. The pelleted cells were resuspended in lysis buffer containing 25 mM Tris-HCl, pH 7.5, 200 mM NaCl and protease inhibitors, sonicated and centrifuged at 34,000×g for 45 minutes to remove debris. Cleared lysate was incubated with Ni-NTA resin (Qiagen) prewashed with lysis buffer, for 1 hr at 4° C. The matrix was loaded into a column then washed with 25 mM Tris-HCl, pH 7.5, 200 mM NaCl and 10 mM imidazole. Protein was eluted with 25 mM Tris-HCl, pH 7.5, 200 mM NaCl and 300 mM imidazole, concentrated and applied to a Superdex 75 (GE Healthcare) column pre-equilibrated with 25 mM Tris pH 7.5, 200 mM NaCl and 1 mM DTT. For DCN2-5, the N-terminal His6 tag was removed prior to gel filtration. Tag removal was achieved through incubation with TEV protease during overnight dialysis against 25 mM Tris pH 7.5, 200 mM NaCl and 1 mM DTT and a second Ni-NTA column. DCN2-5 proteins were stored at −80° C. in 1 mg/mL fractions containing 5% glycerol. The uncleaved DCN1 protein was stored at −80° C. without glycerol.

In experiment [2] the target is T1, DCN1. Briefly: Mass spectroscopy of DCN1 protein incubations. Format: binding. Particulars: for ablation of the parent peak in the mass spectrum / major new peak (protein-inhibitor adduct) / mass of new peak (DCN1 plus inhibitor, loss of morpholinyl group): DCN1 380 μM, 1.2 fold excess of inhibitor, 4° C. overnight, Q-TOF; for difference from DCN1 Apo-protein mass: FIG. 2; for formation of a covalent bond with DCN1 protein: FIG. 2, mass-spectroscopic analyses. Here is the method: as §1
Recombinant DCN1 protein (380 μM) in 25 mM Tris 7.5, 200 mM NaCl, 1 mM DTT buffer was incubated with a 1.2 fold excess of selected DCN1 inhibitors at 4° C. for overnight. The reaction mixture was diluted with tenfold with water, and the protein was analyzed by Q-TOF mass spectroscopy. DCN1 untreated, or treated with previously described non-covalent inhibitors produced an isotope deconvoluted peak at 26.085.75 amus. Incubation under the described conditions with Examples 4, 7 and 9 led to 95-99% ablation of the parent peak in the mass spectrum, with a major (>90%) new peak appearing at 26588.96 amu (Dalton) for Example 4, 26604.34 amu for Example 7, and 26596.18 amu for Example 9. In each case this corresponds to addition of the inhibitor to the protein, coupled with the loss of the morpholinyl group, from the initial Michael adduct between the protein and the small molecule.

By IC50 is commonly meant the concentration that gives 50% inhibition.

SMILES strings stand for the structures.

T1 sequence (Q96GG9 58-259): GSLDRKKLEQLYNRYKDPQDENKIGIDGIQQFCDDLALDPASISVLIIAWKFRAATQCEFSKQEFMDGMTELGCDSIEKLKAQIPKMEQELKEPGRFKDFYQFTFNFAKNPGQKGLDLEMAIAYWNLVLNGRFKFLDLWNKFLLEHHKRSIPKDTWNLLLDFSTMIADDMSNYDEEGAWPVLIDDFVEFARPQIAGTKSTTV

As for `C=C(CN1CCOCC1)C(=O)NC[C@H](Cc1ccccc1)NC(=O)[C@H](Cc1nc2ccc(C(C)C)cc2s1)NC(=O)CC` [Example 7, N—((S)-2-((S)-3-(6-prop-2-ylbenzo[d]thiazol-2-yl)-2-propionamidopropanamido)-3-phenylpropyl)-2-(morpholinomethyl)acrylamide], the IC50 in experiment [1] was 37.4 nM. For the same compound, in experiment [2], the “ablation of the parent peak in the mass spectrum” value is on record as 95-99%; the “major new peak (protein-inhibitor adduct)” value is recorded as above 90%; the “mass of new peak (DCN1 plus inhibitor, loss of morpholinyl group)” value was determined as 26604.34 amu; the “difference from DCN1 Apo-protein mass” value is listed as 518.59 Da. Further, in experiment [2], the “formation of a covalent bond with DCN1 protein” value is listed as “formation of a covalent bond”.
In the case of `CCC(=O)N[C@@H](Cc1nc2ccc(C(C)C)cc2s1)C(=O)N[C@H](CNC(=O)/C=C/CN1CCOCC1)C1CCCCC1` [Example 39, (E)-N—((S)-2-cyclohexyl-2-((S)-3-(6-isopropylbenzo[d]thiazol-2-yl)-2-propionamidopropanamido)ethyl)-4-morpholinobut-2-enamide], the IC50 in experiment [1] was below 150 nM.
Still for that read-out and setting: with `C=CS(=O)(=O)NC[C@H](Cc1cccnc1)NC(=O)[C@H](Cc1nc2ccc(C(C)C)cc2s1)NC(=O)CC` [Example 33, (S)-3-(6-isopropylbenzo[d]thiazol-2-yl)-2-propionamido-N—((S)-1-(pyridin-3-yl)-3-(vinylsulfonamido)propan-2-yl)propanamide] the figure was below 150 nM; with `CCC(=O)N[C@@H](Cc1nc2ccc(C(C)C)cc2s1)C(=O)N[C@H](CNC(=O)CCl)C1CCCCC1` [Example 38, (S)—N—((S)-2-(2-chloroacetamido)-1-cyclohexylethyl)-3-(6-isopropylbenzo[d]thiazol-2-yl)-2-propionamidopropanamide], below 150 nM.
Same read-out and setting: the same measure for `C=CC(=O)NC[C@H](Cc1cccnc1)NC(=O)[C@H](Cc1nc2ccc(C(C)C)cc2s1)NC(=O)CC` [Example 32, N—((S)-2-((S)-3-(6-isopropylbenzo[d]thiazol-2-yl)-2-propionamidopropanamido)-3-(pyridin-3-yl)propyl)acrylamide]: below 150 nM; for `CCC(=O)N[C@@H](Cc1nc2ccc(Cl)cc2s1)C(=O)N[C@H](CNC(=O)CCl)Cc1ccccc1` [Example 20, (S)—N—((S)-1-(2-chloroacetamido)-3-phenylpropan-2-yl)-3-(6-chlorobenzo[d]thiazol-2-yl)-2-propionamidopropanamide]: 360 nM; for `C=C(CN1CCOCC1)C(=O)NC[C@H](CC1CCCCC1)NC(=O)[C@H](Cc1nc2ccc(Cl)cc2s1)NC(=O)CC` [Example 5, N—((S)-2-((S)-3-(6-chlorobenzo[d]thiazol-2-yl)-2-propionamidopropanamido)-3-cyclohexylpropyl)-2-(morpholinomethyl)acrylamide]: 80.7 nM.
For `C=C(CN1CCC(F)(F)CC1)C(=O)NC[C@@H](NC(=O)[C@H](Cc1nc2ccc(C(C)C)cc2s1)NC(=O)CC)C1CCCCC1` [Example 30, N—((S)-2-cyclohexyl-2-((S)-3-(6-isopropylbenzo[d]thiazol-2-yl)-2-propionamidopropanamido)ethyl)-2-((4,4-difluoropiperidin-1-yl)methyl)acrylamide], the IC50 in experiment [1] was below 150 nM.
On the same count and under the same terms, with `C=C(CN1CCOCC1)C(=O)NC[C@@H](NC(=O)[C@H](Cc1nc2ccc(Cl)cc2s1)NC(=O)CC)C1CCCC1` [Example 6, N—((S)-2-((S)-3-(6-chlorobenzo[d]thiazol-2-yl)-2-propionamidopropanamido)-2-cyclopentylethyl)-2-(morpholinomethyl)acrylamide] the figure was 135 nM.
For `C=C(CN1CCOCC1)C(=O)NC[C@@H](NC(=O)[C@H](Cc1nc2ccc(Cl)cc2s1)NC(=O)CC)C1CCCCC1` [Example 4, N—((S)-2-((S)-3-(6-chlorobenzo[d]thiazol-2-yl)-2-propionamidopropanamido)-2-cyclohexylethyl)-2-(morpholinomethyl)acrylamide], the IC50 in experiment [1] is 41.6 nM. For the same compound, in experiment [2], the “ablation of the parent peak in the mass spectrum” value is given as 95-99%; the “major new peak (protein-inhibitor adduct)” value is recorded as above 90%; the “mass of new peak (DCN1 plus inhibitor, loss of morpholinyl group)” value worked out at 26588.96 amu; the “difference from DCN1 Apo-protein mass” value is listed as 503.21 Da. For the same compound, the “formation of a covalent bond with DCN1 protein” value in experiment [2] is “formation of a covalent bond”.
As to `C=CC(=O)NC[C@H](Cc1ccncc1)NC(=O)[C@H](Cc1nc2ccc(C(C)C)cc2s1)NC(=O)CC` [Example 31, N—((S)-2-((S)-3-(6-isopropylbenzo[d]thiazol-2-yl)-2-propionamidopropanamido)-3-(pyridin-4-yl)propyl)acrylamide], the IC50 in experiment [1] is below 150 nM.
For `C=C(Cn1ccnc1)C(=O)NC[C@@H](NC(=O)[C@H](Cc1nc2ccc(C(C)C)cc2s1)NC(=O)CC)C1CCCCC1` [Example 24, 2-((1H-imidazol-1-yl)methyl)-N—((S)-2-cyclohexyl-2-((S)-3-(6-isopropylbenzo[d]thiazol-2-yl)-2-propionamidopropanamido)ethyl)acrylamide], the IC50 in experiment [1] was below 150 nM.
Still for that read-out and setting: the same measure for `C=C(CN1CCOCC1)C(=O)NC[C@H](Cc1cccnc1)NC(=O)[C@H](Cc1nc2ccc(C(C)C)cc2s1)NC(=O)CC` [Example 34, N—((S)-2-((S)-3-(6-isopropylbenzo[d]thiazol-2-yl)-2-propionamidopropanamido)-3-(pyridin-3-yl)propyl)-2-(morpholinomethyl)acrylamide]: below 150 nM; for `C=C(CN1CCN(C)CC1)C(=O)NC[C@@H](NC(=O)[C@H](Cc1nc2ccc(C(C)C)cc2s1)NC(=O)CC)C1CCCCC1` [Example 27, N—((S)-2-cyclohexyl-2-((S)-3-(6-isopropylbenzo[d]thiazol-2-yl)-2-propionamidopropanamido)ethyl)-2-((4-methylpiperazin-1-yl)methyl)acrylamide]: below 150 nM.
The same measure, in the same setting: with `C=C(CN1CCCCC1)C(=O)NC[C@@H](NC(=O)[C@H](Cc1nc2ccc(C(C)C)cc2s1)NC(=O)CC)C1CCCCC1` [Example 23, N—((S)-2-cyclohexyl-2-((S)-3-(6-isopropylbenzo[d]thiazol-2-yl)-2-propionamidopropanamido)ethyl)-2-(piperidin-1-ylmethyl)acrylamide] the figure was below 150 nM; with `C=C(CN1CC(F)(F)C1)C(=O)NC[C@@H](NC(=O)[C@H](Cc1nc2ccc(C(C)C)cc2s1)NC(=O)CC)C1CCCCC1` [Example 26, N—((S)-2-cyclohexyl-2-((S)-3-(6-isopropylbenzo[d]thiazol-2-yl)-2-propionamidopropanamido)ethyl)-2-((3,3-difluoroazetidin-1-yl)methyl)acrylamide], below 150 nM.
